Converted amounts (≈) assume the structure as drawn. Where two headings read alike, the source gives them in different places. Each block holds one compound with its values, some of them ahead of it.
Key:
Assay in all cases: MIC panel of challenge pathogens (CLSI)
Assay type in all cases: cell-based
[1] = tested on: Enterococcus faecium ATCC700221
Protocol: (§1) The inocula for each bacterial strain were prepared by picking 5-10 distinct colonies from the culture plates and suspending them in the appropriate broth as per Clinical and Laboratory Standards Institute (CLSI) guidelines M07-A8, M24-A or M11-A7 as appropriate. The inoculum was resuspended by vigorous shaking on a vortex mixer for 15 s. The turbidity was then adjusted to McFarland standard 0.5 ([…]). The inoculum was further diluted in the appropriate media for MIC tests to give a final inoculum in each well of 2-8×10^5 CFU/ml. MICs were tested in the appropriate broth in accordance with the appropriate CLSI guidelines.
(§2) A stock solution of each compound was prepared at a concentration of 1.28 g/L in DMSO. The stock was further diluted in the appropriate media to give a top starting concentration of 128 mg/L in the assay. 100 μL of the appropriate media, as per CLSI guidelines, was dispensed into each well in columns 2-12. 200 μL of the each compound solution (at 256 mg/L) was dispensed into each well in column 1. 100 μL aliquots were pipetted from column 1 wells and dispensed into column 2 with a multichannel pipette (±2% coefficient of variation) thus diluting two-fold. 100 μL samples were then pipetted from column 2 wells and dispensed into column 3. The process was repeated through to column 10. The final 100 μL of diluted drug from column 10 was then discarded. Row 11 acted as a positive control (no compound, but organisms added), Row 12 acted as a negative control (no compound, and no organisms added).
(§3) 100 μL of the appropriate inoculum suspension in the appropriate media, as per CLSI guidelines, was added to the appropriate wells. […] All plates were incubated in the dark under aerobic or anaerobic conditions at 30-37° C. for 24-48 hours, according to the appropriate CLSI guideline. Plates were read visually 24-48 hours post inoculation. Endpoints of 100% inhibition were determined (CLSI interpretation endpoints following visual examination).
(§4) MIC50, MIC80, and 100% inhibition results are reported below in μg/mL in the following Tables, indicating each compound tested against a given species and strain: […]

[2] = tested on: Enterococcus faecalis ATCC29212
Protocol: as §1, §2, §3, §4

[3] = tested on: Staphylococcus aureus AUR59 7005
Protocol: as §1, §2, §3, §4

[4] = tested on: Staphylococcus aureus AUR60 7005
Protocol: as §1, §2, §3, §4

[5] = tested on: Staphylococcus epidermidis NRS7
Protocol: as §1, §2, §3, §4

[6] = tested on: Staphylococcus aureus AUR131 007035
Protocol: as §1, §2, §3, §4

[7] = tested on: Staphylococcus aureus NRS2 (ATCC700698); conditions: for MIC: read-out: 100% inhibition; for MIC50: read-out: MIC50 (50%); for MIC80: read-out: MIC80 (80%)
Protocol: as §1, §2, §3, §4

[8] = tested on: Staphylococcus aureus NRS1 (ATCC700699); conditions: for MIC: read-out: 100% inhibition; for MIC50: read-out: MIC50 (50%); for MIC80: read-out: MIC80 (80%)
Protocol: as §1, §2, §3, §4

[9] = tested on: Staphylococcus epidermidis NRS122
Protocol: as §1, §2, §3, §4

[10] = tested on: Staphylococcus aureus NRS383
Protocol: as §1, §2, §3, §4

[11] = tested on: Staphylococcus aureus NRS384
Protocol: as §1, §2, §3, §4

[12] = Staphylococcus aureus NRS2 (ATCC700698)
[13] = Staphylococcus aureus NRS1 (ATCC700699)

- MIC ([1]; Enterococcus faecium ATCC700221, read-out: 100% inhibition): 0.5 µg/mL (≈ 1.15 µM)
- MIC50 ([1]; Enterococcus faecium ATCC700221, read-out: MIC50 (50%)): 0.5 µg/mL (≈ 1.15 µM)
- MIC80 ([1]; Enterococcus faecium ATCC700221, read-out: MIC80 (80%)): 0.5 µg/mL (≈ 1.15 µM)
- MIC ([2]; Enterococcus faecalis ATCC29212, read-out: 100% inhibition): 1 µg/mL (≈ 2.3 µM)
- MIC50 ([2]; Enterococcus faecalis ATCC29212, read-out: MIC50 (50%)): 1 µg/mL (≈ 2.3 µM)
- MIC80 ([2]; Enterococcus faecalis ATCC29212, read-out: MIC80 (80%)): 1 µg/mL (≈ 2.3 µM)
- MIC ([3]; AUR597005, Staphylococcus aureus AUR59 7005, read-out: 100% inhibition): 0.5 µg/mL (≈ 1.15 µM)
- MIC50 ([3]; AUR597005, Staphylococcus aureus AUR59 7005, read-out: MIC50 (50%)): 0.5 µg/mL (≈ 1.15 µM)
- MIC80 ([3]; AUR597005, Staphylococcus aureus AUR59 7005, read-out: MIC80 (80%)): 0.5 µg/mL (≈ 1.15 µM)
- MIC ([4]; AUR607005, Staphylococcus aureus AUR60 7005, read-out: 100% inhibition): 0.5 µg/mL (≈ 1.15 µM)
- MIC50 ([4]; AUR607005, Staphylococcus aureus AUR60 7005, read-out: MIC50 (50%)): 0.5 µg/mL (≈ 1.15 µM)
- MIC80 ([4]; AUR607005, Staphylococcus aureus AUR60 7005, read-out: MIC80 (80%)): 0.5 µg/mL (≈ 1.15 µM)
- MIC ([5]; Staphylococcus epidermidis NRS7, read-out: 100% inhibition): 2 µg/mL (≈ 4.6 µM)
- MIC50 ([5]; Staphylococcus epidermidis NRS7, read-out: MIC50 (50%)): 1 µg/mL (≈ 2.3 µM)
- MIC80 ([5]; Staphylococcus epidermidis NRS7, read-out: MIC80 (80%)): 1 µg/mL (≈ 2.3 µM)
- MIC ([6]; AUR131007035, Staphylococcus aureus AUR131 007035, read-out: 100% inhibition): 0.5 µg/mL (≈ 1.15 µM)
- MIC50 ([6]; AUR131007035, Staphylococcus aureus AUR131 007035, read-out: MIC50 (50%)): 0.5 µg/mL (≈ 1.15 µM)
- MIC80 ([6]; AUR131007035, Staphylococcus aureus AUR131 007035, read-out: MIC80 (80%)): 0.5 µg/mL (≈ 1.15 µM)
- MIC [7, 12]: 0.5 µg/mL (≈ 1.15 µM)
- MIC50 [7, 12]: 0.5 µg/mL (≈ 1.15 µM)
- MIC80 [7, 12]: 0.5 µg/mL (≈ 1.15 µM)
- MIC [8, 13]: ≤ 0.25 µg/mL
- MIC50 [8, 13]: ≤ 0.25 µg/mL
- MIC80 [8, 13]: ≤ 0.25 µg/mL
- MIC ([9]; Staphylococcus epidermidis NRS122, read-out: 100% inhibition): 16 µg/mL (≈ 36.8 µM)
- MIC50 ([9]; Staphylococcus epidermidis NRS122, read-out: MIC50 (50%)): 4 µg/mL (≈ 9.2 µM)
- MIC80 ([9]; Staphylococcus epidermidis NRS122, read-out: MIC80 (80%)): 8 µg/mL (≈ 18.4 µM)
- MIC ([10]; Staphylococcus aureus NRS383, read-out: 100% inhibition): 0.5 µg/mL (≈ 1.15 µM)
- MIC50 ([10]; Staphylococcus aureus NRS383, read-out: MIC50 (50%)): 0.5 µg/mL (≈ 1.15 µM)
- MIC80 ([10]; Staphylococcus aureus NRS383, read-out: MIC80 (80%)): 0.5 µg/mL (≈ 1.15 µM)
- MIC ([11]; Staphylococcus aureus NRS384, read-out: 100% inhibition): ≤ 0.25 µg/mL
- MIC50 ([11]; Staphylococcus aureus NRS384, read-out: MIC50 (50%)): ≤ 0.25 µg/mL
- MIC80 ([11]; Staphylococcus aureus NRS384, read-out: MIC80 (80%)): ≤ 0.25 µg/mL
Structure (SMILES): Clc1ccc(Cc2sc(-c3nnn[nH]3)cc2-c2cccc(CC3CCCC3)c2)cc1 [DNM0610, 5-(5-(4-Chlorobenzyl)-4-(3-(cyclopentylmethyl)phenyl)thiophen-2-yl)-1H-tetrazole]

Structure (SMILES): CN[C@H](CC(C)C)C(=O)N[C@H]1C(=O)N[C@@H](CC(N)=O)C(=O)N[C@H]2C(=O)N[C@H]3C(=O)N[C@H](C(=O)N[C@H](C(=O)O)c4cc(O)cc(O)c4-c4cc3ccc4O)[C@H](O)c3ccc(c(Cl)c3)Oc3cc2cc(c3O[C@@H]2O[C@H](CO)[C@@H](O)[C@H](O)[C@H]2O[C@H]2C[C@](C)(N)[C@H](O)[C@H](C)O2)Oc2ccc(cc2Cl)[C@H]1O [Vancomycin, reference compound]
- MIC ([1]; Enterococcus faecium, ATCC700221, read-out: 100% inhibition): > 16 µg/mL
- MIC50 ([1]; Enterococcus faecium, ATCC700221, read-out: MIC50 (50%)): > 16 µg/mL
- MIC80 ([1]; Enterococcus faecium, ATCC700221, read-out: MIC80 (80%)): > 16 µg/mL
- MIC ([2]; Enterococcus faecalis, ATCC29212, read-out: 100% inhibition): 4 µg/mL (≈ 2.76 µM)
- MIC50 ([2]; Enterococcus faecalis, ATCC29212, read-out: MIC50 (50%)): 4 µg/mL (≈ 2.76 µM)
- MIC80 ([2]; Enterococcus faecalis, ATCC29212, read-out: MIC80 (80%)): 4 µg/mL (≈ 2.76 µM)
- MIC ([3]; Staphylococcus aureus, AUR597005, read-out: 100% inhibition): 1 µg/mL (≈ 0.69 µM)
- MIC50 ([3]; Staphylococcus aureus, AUR597005, read-out: MIC50 (50%)): 0.5 µg/mL (≈ 0.345 µM)
- MIC80 ([3]; Staphylococcus aureus, AUR597005, read-out: MIC80 (80%)): 0.5 µg/mL (≈ 0.345 µM)
- MIC ([4]; Staphylococcus aureus, AUR607005, read-out: 100% inhibition): 1 µg/mL (≈ 0.69 µM)
- MIC50 ([4]; Staphylococcus aureus, AUR607005, read-out: MIC50 (50%)): 0.5 µg/mL (≈ 0.345 µM)
- MIC80 ([4]; Staphylococcus aureus, AUR607005, read-out: MIC80 (80%)): 1 µg/mL (≈ 0.69 µM)
- MIC ([5]; Staphylococcus epidermidis, NRS7, read-out: 100% inhibition): 4 µg/mL (≈ 2.76 µM)
- MIC50 ([5]; Staphylococcus epidermidis, NRS7, read-out: MIC50 (50%)): 2 µg/mL (≈ 1.38 µM)
- MIC80 ([5]; Staphylococcus epidermidis, NRS7, read-out: MIC80 (80%)): 4 µg/mL (≈ 2.76 µM)
- MIC ([6]; Staphylococcus aureus, AUR131007035, read-out: 100% inhibition): 0.5 µg/mL (≈ 0.345 µM)
- MIC50 ([6]; Staphylococcus aureus, AUR131007035, read-out: MIC50 (50%)): 0.5 µg/mL (≈ 0.345 µM)
- MIC80 ([6]; Staphylococcus aureus, AUR131007035, read-out: MIC80 (80%)): 0.5 µg/mL (≈ 0.345 µM)
- MIC ([7]; Staphylococcus aureus): 1 µg/mL (≈ 0.69 µM)
- MIC50 ([7]; Staphylococcus aureus): 0.5 µg/mL (≈ 0.345 µM)
- MIC80 ([7]; Staphylococcus aureus): 1 µg/mL (≈ 0.69 µM)
- MIC ([8]; Staphylococcus aureus): 4 µg/mL (≈ 2.76 µM)
- MIC50 ([8]; Staphylococcus aureus): 2 µg/mL (≈ 1.38 µM)
- MIC80 ([8]; Staphylococcus aureus): 4 µg/mL (≈ 2.76 µM)
- MIC ([9]; Staphylococcus epidermidis, NRS122, read-out: 100% inhibition): 2 µg/mL (≈ 1.38 µM)
- MIC50 ([9]; Staphylococcus epidermidis, NRS122, read-out: MIC50 (50%)): 1 µg/mL (≈ 0.69 µM)
- MIC80 ([9]; Staphylococcus epidermidis, NRS122, read-out: MIC80 (80%)): 1 µg/mL (≈ 0.69 µM)
- MIC ([10]; Staphylococcus aureus, NRS383, read-out: 100% inhibition): 0.5 µg/mL (≈ 0.345 µM)
- MIC50 ([10]; Staphylococcus aureus, NRS383, read-out: MIC50 (50%)): 0.5 µg/mL (≈ 0.345 µM)
- MIC80 ([10]; Staphylococcus aureus, NRS383, read-out: MIC80 (80%)): 0.5 µg/mL (≈ 0.345 µM)
- MIC ([11]; Staphylococcus aureus, NRS384, read-out: 100% inhibition): 1 µg/mL (≈ 0.69 µM)
- MIC50 ([11]; Staphylococcus aureus, NRS384, read-out: MIC50 (50%)): 1 µg/mL (≈ 0.69 µM)
- MIC80 ([11]; Staphylococcus aureus, NRS384, read-out: MIC80 (80%)): 1 µg/mL (≈ 0.69 µM)

From patent publication US9012655B2, “Antimicrobial/adjuvant compounds and methods” (Denouamed, Inc., priority 2011, dated 2015)
